Tests used:
[1] = tested on: COX-2 overexpressing squamous carcinoma cell line JWF2; conditions: JWF2, background section; cited from earlier work
COX-2 = target: T1, COX-2 (Mus musculus, UniProt Q05769); assay: LC/MS of J-series PG-ethanolamides in culture medium of AEA-treated cells; type: cell-based; conditions: COX-2 overexpressing cells; for J-series PGs identified in AEA-treated cells: FIG. 6C
T1 construct: endogenous in cells; host or cells: JWF2 keratinocytes
T1 sequence (Q05769 18-604): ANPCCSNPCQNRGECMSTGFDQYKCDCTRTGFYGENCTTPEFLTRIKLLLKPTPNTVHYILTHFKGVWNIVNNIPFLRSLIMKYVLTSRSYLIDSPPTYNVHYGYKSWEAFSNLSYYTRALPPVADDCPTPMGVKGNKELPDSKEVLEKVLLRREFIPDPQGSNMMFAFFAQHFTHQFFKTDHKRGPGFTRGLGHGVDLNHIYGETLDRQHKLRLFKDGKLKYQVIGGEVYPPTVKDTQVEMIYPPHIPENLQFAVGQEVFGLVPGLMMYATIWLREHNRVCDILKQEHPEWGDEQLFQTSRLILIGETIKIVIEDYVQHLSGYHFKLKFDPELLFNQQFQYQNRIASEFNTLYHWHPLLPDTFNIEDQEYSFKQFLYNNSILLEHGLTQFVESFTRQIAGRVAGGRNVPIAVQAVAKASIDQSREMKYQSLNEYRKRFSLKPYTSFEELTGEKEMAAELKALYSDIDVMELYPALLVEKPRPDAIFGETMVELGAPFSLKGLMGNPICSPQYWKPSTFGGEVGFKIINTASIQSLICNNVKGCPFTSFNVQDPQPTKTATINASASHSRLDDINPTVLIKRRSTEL
Method: To identify the specific J-series PGs that are produced in AEA-treated cells that overexpress COX-2 we treated the cells with AEA, collected the culture medium and analyzed J-series PGs using LC/MS.
To determine the direct role of COX-2 in AEA-induced ER stress, the requirement of COX-2 for J-series PG-ethanolamide synthesis was assessed. Results are depicted in FIG. 9D.

H-PGDS and L-PGDS = assay: AEA-induced PGD2 and PGJ2 production (FIG. 11); type: cell-based
[2] = tested on: CHOP10 expression and Caspase-3 cleavage; assay: CHOP10 expression and caspase-3 cleavage (FIGS. 12, 13); type: cell-based
epidermal tumor = conditions: background section; cited from earlier work
[3] = tested on: Lewis lung adenocarcinoma; conditions: oral administration, background section; cited from earlier work
tumor cell = assay: Tumor cell death (FIG. 7); type: cell-based; conditions: compared to 15d-PGJ
[4] = tested on: tumorigenic keratinocytes (Jwf2); assay: Apoptosis in tumorigenic keratinocytes (FIG. 14); type: cell-based; conditions: Jwf2, FIG. 14
tumor cells = assay: Selective toxicity in tumor cells (FIG. 15); type: cell-based
[5] = tested on: non-tumorigenic HaCaT keratinocytes; assay: MTS cell viability, non-tumorigenic HaCaT keratinocytes; type: cell-based; conditions: FIG. 1
[6] = tested on: Tumorigenic JWF2 keratinocytes; assay: MTS cell viability, tumorigenic JWF2 keratinocytes; type: cell-based; conditions: various concentrations, FIG. 1
Method: Tumorigenic JWF2 keratinocytes were treated with various concentrations of AEA and cell viability measured using MTS analysis. […] An interesting feature of tumorigenic keratinocytes is that they overexpress COX-2. However, non-tumorigenic keratinocytes contain low basal levels of COX-2. Therefore, the role of COX-2 in the cytotoxicity of AEA was examined.
JWF2 tumorigenic keratinocytes were treated with each of these prostaglandins and cell survival measured in MTS assays.

eIF2a phosphorylation = assay: ER stress (eIF2a phosphorylation staining) in HaCaT transfected with COX-2 or empty vector; type: cell-based; conditions: HaCaT transfected with COX-2, relative to empty vector transfected cells, FIG. 2
Method: Since it was determined that AEA-induced cell death required COX-2 we examined whether ER stress also required COX-2. In this experiment we utilized HaCaT keratinocytes which express low basal levels of COX-2. The cells were transfected with an empty vector (pcDNA6.1) or an expression vector containing COX-2. In FIG. 2 the red signal indicates COX-2 expression, green indicates P-eIF2a phosphorylation and the blue stains the nuclear membrane for orientation.

[7] = tested on: D- and J-series PG synthesis; assay: Prostaglandin synthesis in JWF2 cells by ELISA; type: cell-based; conditions: various concentrations of AEA, FIG. 6A
Method: To determine if D- and J-series PGs are synthesized endogenously, JWF2 cells were treated with various concentrations of AEA and prostaglandin synthesis measured using ELISA assays.

activated caspase-3 = assay: Apoptosis (activated caspase-3 staining) with or without COX-2; type: cell-based
Description: Red staining indicates COX-2 while the green stain indicates activated caspase-3, a hallmark for apoptosis.

HaCaT keratinocytes = conditions: low basal COX-2, background section; cited from earlier work

Question: For `CCCCC/C=C/C=C1/C(=O)C=C[C@@H]1C/C=C\CCCC(=O)O` [15-deoxy Δ^12,14 PGJ2, 15-deoxy-Δ^12,14-Prostaglandin J2], which cell death [1] is on record?
Answer: inducers of cell death

Question: With `CCCCC[C@H](O)/C=C/[C@H]1C(=O)C[C@H](O)[C@@H]1C/C=C\CCCC(=O)O` [PGD2] as the molecule, how does the cell death [1] read?
Answer: cytotoxic

Question: For `CCCCCC(O)C=CC1C(=O)C=CC1CC=CCCCC(=O)NCCO` (stereo not shown) [PGJ-EA], which “J-series PGs identified in AEA-treated cells” value (shortened to “J-series PGs identified”) (COX-2) is on record?
Answer: metabolic products of AEA

Question: What does the source list for `Cl[Se](Cl)(Cl)Cl` [SeCL4]?
Answer: AEA-induced PGD2 production (H-PGDS and L-PGDS): reversed; AEA-induced PGJ2 production (H-PGDS and L-PGDS): reversed; AEA-induced CHOP10 expression ([2]; FIG. 12): inhibited; AEA-induced Caspase-3 cleavage ([2]; indicator of apoptosis, FIG. 12): inhibited

Question: With `Cc1c(C(=O)c2cccc3ccccc23)c2cccc3c2n1[C@H](CN1CCOCC1)CO3` [WIN-55, 212-2] as the molecule, how does the epidermal tumor growth (epidermal tumor) read?
Answer: blocked

Question: With `CCCCCc1cc(O)c2c(c1)OC(C)(C)[C@@H]1CCC(C)=C[C@@H]21` [Δ^9-THC, Δ^9-tetrahydrocannabinol] as the molecule, how does the “Lewis lung adenocarcinoma growth” value [3] read?
Answer: reduce Lewis lung adenocarcinoma growth

Question: With `CCCCC/C=C/C=C1/C(=O)C=CC1C/C=C\CCCC(=O)NCCO` (stereo not shown) [15d-PGJ-EA, 15-deoxy Δ^12,14-prostagladin J2-ethanolamide] as the molecule, how does the tumor cell death (tumor cell) read?
Answer: potent inducer of tumor cell death

Question: And the “relative abundance among J-series PG-EAs produced” value (COX-2)?
Answer: most abundant produced

Question: What about the “J-series PGs identified” value (COX-2) of the same molecule?
Answer: metabolic products of AEA

Question: What about the apoptosis [4] of the same molecule?
Answer: induces apoptosis

Question: And the “toxicity, tumor cell selectivity” value (tumor cells)?
Answer: selectively toxic in tumor cells

Question: Which cell death [1] does the source give for `CCCCC[C@H](O)/C=C/[C@H]1C(=O)C=C[C@@H]1C/C=C\CCCC(=O)O` [PGJ2] here?
Answer: inducers of cell death

Question: For `CCCCC[C@H](O)/C=C/[C@H]1C(=O)C[C@H](O)[C@@H]1C/C=C\CCCC(=O)NCCO` [PGD2-EA], which CHOP10 expression ([2]; FIG. 13) is on record?
Answer: increased

Question: What about the Cl-Casp3 expression ([2]; FIG. 13) of the same molecule?
Answer: increased

Question: And the cell death [1]?
Answer: cytotoxic

Question: With `CCCCC/C=C\C/C=C\C/C=C\C/C=C\CCCC(=O)NCCO` [AEA, arachidonoyl ethanolamide] as the molecule, how does the “cell viability (MTS absorbance)” value [5] read?
Answer: did not lead to a loss of viability

Question: And the “cell viability (MTS absorbance)” value [6]?
Answer: concentration-dependent decline in tumor cell viability

Question: And the “eIF2a phosphorylation (ER stress)” value (eIF2a phosphorylation)?
Answer: significant increase in eIF2a phosphorylation

Question: And the “D-series PG synthesis” value [7]?
Answer: concentration-dependent increase

Question: What about the “J-series PG synthesis” value [7] of the same molecule?
Answer: concentration-dependent increase

Question: And the “apoptosis (activated caspase-3)” value (activated caspase-3; cells with COX-2, FIG. 3)?
Answer: induced apoptosis

Question: And the “apoptosis (activated caspase-3)” value (activated caspase-3; in the absence of COX-2, FIG. 3)?
Answer: did not undergo apoptosis

Question: What about the cell death (HaCaT keratinocytes) of the same molecule?
Answer: does not induce cell death

Question: And the cell death [1]?
Answer: induce cell death

Question: For `CCCCCC(O)CC=C1C(=O)C=CC1CC=CCCCC(=O)NCCO` (stereo not shown) [D12-PGJ-EA], which “J-series PGs identified” value (COX-2) is on record?
Answer: metabolic products of AEA
